Experimental data from patent US10532066B2, “Surfactant lipids, compositions thereof, and uses thereof” (National Jewish Health, priority 2007, dated 2020).
Entries after “also recorded” stand apart in the source; their conditions may differ.

Legend:
[1] = system: differentiated U937 cells; test: LPS-induced TNF-α production by U937 cells in serum free media (without LBP); assay type: cell-based, human; conditions: for LPS-induced synthesis and secretion of TNF-α in serum free media: LPS 10 ng/ml, 6 h, without LBP; for potency as LPS antagonist without LBP: serum free media compared with serum
Experimental: U937 cells were induced to differentiate by incubation in medium containing 10 nM of phorbol myristate acetate (PMA) for 48 h. The cells (1.3×10^5/well) were placed on 96-well plates and further incubated in the absence of PMA for 24 h in RPMI 1640 medium containing 10% BGS. After the cells were washed with PBS, the indicated concentration of phospholipids was preincubated with the cells in RPMI without serum for 30 min before adding LPS. The indicated amount of LPS was then added into the well and incubated for 6 h at 37° C. with 5% CO2. The culture medium was collected and assayed for TNF-α secretion using an ELISA kit (Invitrogen).

CD14 binding to LPS = biological target: T1, CD14 binding to LPS (Homo sapiens, UniProt P08571); test: Phospholipid competition for CD14 binding to solid phase LPS; conditions: CD14 1 μg/ml, liposomes 20 μg/ml
T1 construct: purchased Cell Sciences Inc. (Canton, Mass.)
T1 sequence (P08571 20-345): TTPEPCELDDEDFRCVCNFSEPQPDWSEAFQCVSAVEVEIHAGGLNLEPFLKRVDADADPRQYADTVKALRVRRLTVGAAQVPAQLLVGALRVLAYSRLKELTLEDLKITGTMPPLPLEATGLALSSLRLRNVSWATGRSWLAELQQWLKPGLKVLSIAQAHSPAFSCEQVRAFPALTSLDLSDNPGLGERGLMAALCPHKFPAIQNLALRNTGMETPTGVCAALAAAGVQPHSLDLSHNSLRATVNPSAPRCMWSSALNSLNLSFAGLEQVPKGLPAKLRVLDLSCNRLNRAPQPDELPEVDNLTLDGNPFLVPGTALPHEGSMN
Experimental: FIG. 13. PG Inhibits CD14 binding to solid phase LPS. (A) Various types of PG were coated onto microtiter plates, and incubated with CD14 (1 μg/ml) at 37° C. for 1 h. […] Types of PG shown on the graph are: dilauroylphosphatidylglycerol (DLPG), dimyristoyl-phosphatidylglycerol (DMPG), dipalmitoylphosphatidylglycerol (DPPG), and 16:0/18:1; palmitoyl-oleoyl-phosphatidylglycerol (POPG). […] The binding of CD14 to LPS was detected using anti-CD14 monoclonal antibody. The ELISA based absorbance of CD14 bound to LPS was defined as 100%.

LBP binding to CD14 = biological target: T2, LBP binding to CD14 (Homo sapiens, UniProt P08571); test: Phospholipid competition for LBP-CD14 binding; conditions: LBP 1 μg/ml, liposomes 20 μg/ml
T2 construct: purchased Cell Sciences Inc. (CD14); R&D systems (LBP)
T2 sequence (P08571 20-345 limits assumed): T1 sequence (P08571 20-345)
Experimental: CD14 (2 μg) or sTLR4 (100 ng) in aliquots of 20 μl of buffer B were pipeted onto a 96-well plate, and the solvent evaporated using a warm air dryer. […] The amount of bound LBP or MD-2 was detected using specific antibodies.

[2] = system: MAPK, IkBα and MKP-1 in differentiated U937 cells; test: Western blot of LPS induced MAPK and IkBα phosphorylation and MKP-1 expression; assay type: cell-based, human; conditions: LPS 10 ng/ml; for LPS-induced MKP-1 expression / LPS-induced phosphorylation of p38, ERK, JNK and IkBα: liposomes 200 μg/ml; for LPS-induced phosphorylation of p38, ERK, JNK and IkBα: 15-60 min
Experimental: FIG. 4. POPG inhibits LPS induced MAPK and IkBα phosphorylation and MKP-1 expression. POPG liposomes (200 μg/ml) were added to monolayer cultures of differentiated U937 cells that received either no treatment or 10 ng/ml LPS. After incubating for the indicated time, cells were lysed using lysis buffer containing detergent, protease inhibitors and phosphatase inhibitors. Aliquots with 15 μg of protein from lysates were separated by SDS-PAGE and transferred onto nitrocellulose membranes. The amount of phosphorylation was detected using phospho-specific antibodies to p38MAPK, p42/p44 ERK, p46-p54 INK and phosphorylated IkBα. To determine equal loading of proteins between samples, the membranes were probed with rabbit polyclonal p46 INK, p42/p44 ERK, p38MAPK and IkBα antibodies. The expression of MKP-1 was detected with a polyclonal MKP-1 antibody.
FIG. 5. Quantification of POPG inhibition of LPS induced signaling. Western blot analysis as described in FIG. 4 was performed three or four times on separate samples and the intensity of phospho-p38, phospho-IkBα, phosphoERK, phospho JNK, phospho IkBα, total IkBα and MKP-1 was calculated using NIH Image J1.34 software.
FIG. 6. Molecular specificity in POPG action. Liposomes composed of POPC, DPPG or POPG were added to monolayer cultures of differentiated U937 cells that received either no treatment or 10 ng/ml LPS, as indicated. After 30 or 60 min cells were lysed and 15 μg of cellular protein from cultures was separated by SDS-PAGE and transferred onto nitrocellulose membranes. Phosphorylated and nonphosphorylated proteins were detected as described in FIG. 4.
FIG. 7. Comparative quantification of lipid dependent antagonism of LPS signaling. Western blot analysis was performed as described in FIG. 6 in three independent experiments. The intensity of the phosphorylated (p38, ERK, JNK and IkBα) and nonphosphorylated (total IkBα and MKP-1) proteins of interest was measured using NIH Image 0.1.34 software. Significance—*p<0.05, ** p<0.01.
Monolayers of unstimulated or stimulated macrophages were lysed on ice with 250 μl of ice-cold lysis buffer [50 mM Tris.HCl, pH 8.0, containing 137 mM NaCl, 10% (vol/vol) glycerol, 1% (vol/vol) Nonidet P-40, 1 mM NaF, 10 μg/ml leupeptin, 10 μg/ml aprotinin, 2 mM Na3VO4, and 1 mM phenylmethylsulfonyl fluoride (29). Insoluble nuclear material was pelleted by centrifugation at 14,000×g for 10 min at 4° C. and the supernatants were collected. 15 μg of protein from lysates was separated by SDS-PAGE and transferred onto nitrocellulose membranes (30). The blots were then washed in Tris-Tween-buffered saline [TTBS, 20 mM Tris-HCl buffer, pH 7.6, containing 137 mM NaCl and 0.05% (vol/vol) Tween 20], blocked with 5% (wt/vol) nonfat dry milk for 1 hour, and probed according to the method described by Towbin et. al. (30) with phospho-specific antibodies to p46-p54 JNK, p42/p44 ERK, and p38MAPK, or IkBα or with a polyclonal MKP-1 or IkBα antibodies in 5% (wt/vol) BSA dissolved in TTBS. With the use of horseradish peroxidase-conjugated secondary anti-rabbit or anti-mouse antibody, bound antibodies were detected by enhanced chemiluminescence (ECL plus, Amersham Biosciences, Piscataway, N.J.). To determine loading of proteins between samples, the membranes were probed with rabbit polyclonal p46 JNK, p42/p44 ERK, and p38MAPK antibodies.

Row | Compound | LPS-induced synthesis and secretion of TNF-α in serum free media [1] | potency as LPS antagonist without LBP [1] | inhibition of CD14 binding to solid phase LPS (CD14 binding to LPS) | reduction of the interaction of LBP with CD14 (LBP binding to CD14) | LPS-induced MKP-1 expression [2] | LPS-induced phosphorylation of p38, ERK, JNK and IkBα [2] | LPS-induced reduction (degradation) of steady state IkBα ([2]; POPG 200 μg/ml)
1 | CCCCCCCCCCCCCC(=O)OCC(COP(=O)(O)OCC(O)CO)OC(=O)CCCCCCCCCCCCC (centres unmarked) [DMPG, dimyristoyl-phosphatidylglycerol] | still inhibited | continues to remain high | most effective inhibitors |  |  |  | 
2 | CCCCCCCCCCCCCCCC(=O)OC[C@H](COP(=O)([O-])OCC[N+](C)(C)C)OC(=O)CCCCCCCCCCCCCCC [DPPC, dipalmitoyl-phosphatidylcholine, reference compound] |  |  |  | not exhibited |  |  | 
3 | CCCCCCCCCCCCCCCC(=O)OCC(COP(=O)(O)OCC(O)CO)OC(=O)CCCCCCCCCCCCCCC (centres unmarked) [DPPG, dipalmitoyl-phosphatidylglycerol, reference compound] |  |  | weakly competes |  | neither POPC nor DPPG exerted a significant effect | neither POPC nor DPPG exerted a significant effect | 
4 | CCCCCCCC/C=C\CCCCCCCC(=O)O[C@H](COC(=O)CCCCCCCCCCCCCCC)COP(=O)(O)OCC(O)CO (some centres unmarked) [POPG, palmitoyl-oleoyl-phosphatidylglycerol] | still inhibited | modestly diminished | almost completely inhibits; also recorded: most effective inhibitors | approximately 40% | blocked the synthesis; also recorded: reduced to control levels; also recorded: potently inhibited | reduced; also recorded: eliminated the phosphorylation; also recorded: significantly reduces; also recorded: potently inhibited | abrogated the reduction; also recorded: remained constant
5 | phosphatidylinositol [PI] | still inhibited | modestly diminished | fails to compete | not exhibited | reduced | reduced | 
